In patent US20070270392A1, “Use of a Cyclopentenone Prostaglandin for Delaying the Onset and/or Preventing the Continuation of Labour” (Imperial College Innovations Limited, priority 2003, published 2007):

Tested on: IKKα or IKKβ
Assay: Western immunoblot of IKK protein expression in myometrial cells
Assay type: cell-based, human
Description: Western immunoblots of cytosolic extracts from myometrial cells (A) treated with 15dPGJ2 for 2 h+/−IL1b for 15 min; probed for IKK, and (B) treated with […] 15dPGJ2, […] MG132 or vehicle for 2 h, +/−IL-1β for 15 min; probed for IκBα.
Protein samples (20-70 μg) were mixed with Laemmli sample buffer (1:1) containing β-mercaptoethanol (5%), and boiled for 5 min. Proteins were then separated by SDS-PAGE (12-14% gels) and transferred onto PVDF membrane (Amersham Pharmacia Biotech). The membranes were blocked overnight in 5% non-fat milk prepared in PBS-T buffer, at 4° C. The blots were incubated with the primary antibody in 1% non-fat milk in PBS-T buffer for 1 h, and washed three times (10 min each) in PBS-T with vigorous shaking. The blots were then incubated with HRP-conjugated secondary antibody (diluted 1:2000 in 1% non-fat milk in PBS-T buffer) for 1 h and washed three times (10 min each) in PBS-T. Signal detection was achieved using enhanced chemi-luminescence (ECL plus system, Amersham Pharmacia Biotech) according to manufacturer's instructions.
30-50 μg protein extracts were subjected to SDS-PAGE and Western immuno-blotting. Secondary antibodies were IgG-HRP and ECL Plus detection kit (Amersham Pharmacia Biotech, Amersham Place, Little Chalfont, Bucks, HP7 9NA) was used for visualisation.

Question: `CCCCCC=CC=C1C(=O)C=C[C@@H]1CC=CCCCC(=O)O` [15d-PGJ2, 15-deoxy-Δ^12,14prostaglandin J2] was tested. Which “IKKα or IKKβ protein expression” value did it give?
Answer: had no effect
